The values that follow come from patent US12370235B2, “Synthetic, non-natural antimicrobial peptides inspired by Staphylococcus auricularis delta toxin” (University of Saskatchewan, priority 2021, dated 2025).

Broadly, the MIC is the lowest concentration found to suppress growth.

Data set [1] deals with MRSA ATCC 33592. The experiment in a line: DiSC3(5) membrane polarization assay. Type of data set: cell-based, Staphylococcus aureus. The conditions noted are these: 1.56 to 25 μg/mL. As to the method:
Membrane disruption and depolarization are commonly reported mechanisms of AMP action. Two indirect assays that rely on fluorescent dyes were employed to assess the interaction of STIP3-29 and D-STIP3-29 with bacterial membranes. First, changes to SYTOX fluorescence was measured when MRSA ATCC 33592 was treated with increasing peptide concentrations ranging from one fourth to four-fold the MIC. […] Next, DiSC3(5), a cationic dye that binds to polarized membranes was used to report on possible depolarization related to AMP treatment. […] Thus, without wishing to be bound by theory, a more conservative explanation of the results is that the cationic peptides increase membrane permeability to SYTOX and that the like-charge of the AMPs to the reporter of polarization may confound the interpretation of the indirect assay. For example, the AMPs may simply displace the self-quenching DiSC3(5) molecules from the membrane surface without causing depolarization.

The subject of data set [2] is MRSA ATCC 33592. Put plainly: Three-dimensional NHEK skin model of MRSA infection and treatment. Type of data set: cell-based, Staphylococcus aureus. As to the method: To begin to assess the potential utility of STIP3-29 as a topical antimicrobial agent, the ability of the peptide to control MRSA infections of three-dimensional epidermal skin model prepared from normal, human-derived epidermal keratinocytes (NHEK) in vitro was evaluated. The multilayered and highly differentiated tissue was colonized with MRSA 33952 through a 4 h exposure to 5×10^5 CFU before removing non-adherent cells. It was observed that ˜7×10^3 CFU (−1%) of the MRSA cells colonized the tissues, and that the population expanded by 4-log units in a 16 h period (FIG. 6A). […] Amidation of the C-terminus is correlated with an increase in red blood cell lysis, observed by comparing of STIP3-1 to STIP3-28 and STIP3-3 to STIP3-29 whereas the inclusion of D-amino acids reduced the hemolytic activity.
Three-dimensional tissue infection and treatment. 3D EpiDerm skin tissues (MatTek EPI-200-AFAB; antifungal & antibiotic-free; 9 mm) contained within a plastic insert lined with a permeable 0.4 μm membrane were transferred to a 12 well plate containing dye- and antibiotic assay medium (600 μl per well). […] The number of colonies on each plated were counted and an average CFU/mL was determined for treated and untreated samples. […]

Data set [3] in a line: Circular dichroism spectroscopy. The format is physicochemical. The conditions noted are these: CD, 50% (v/v) TFE. Summed up: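 Secondary structure of peptides dissolved in water at 0.3–0.5 mg/mL was assessed by CD. Spectra were recorded from 180 to 260 nm at room temperature in a 0.1 cm quartz cuvette; water and 50% (v/v) TFE conditions were compared.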
For data set [4], the system named is S. pseudintermedius human isolate SPC001 (MSSP). Put plainly: MIC, broth dilution. The format is cell-based, Staphylococcus pseudintermedius. As to the method: (§1) MIC determination. MICs were measured using peptides with 95% purity. For bacterial studies, cation-adjusted Mueller Hinton (MH) broth was used as the growth medium whereas Yeast Peptone Dextrose (YPD; 10 g/L yeast extract, 20 g/L peptone, 20 g/L dextrose) was used for Candida spp. and other yeast. Microorganisms were diluted to an optical density of […] in MH or YPD broth and a 180 μl volume was mixed with 20 μl of peptide arrayed as a 2-fold dilution series in a flat-bottom 96-well microtitre plate. A control was performed using 20 μl of sterile water. Plates were incubated as standing cultures overnight at 37° C.
(§2) Determination of minimum inhibitory concentrations. The MICs were measured for bioactive peptides identified from the initial screen. For bacterial studies, cation-adjusted Mueller Hinton (MH) broth was used as the growth medium whereas YPD was used for C. albicans. Bacterial cultures were diluted to a OD value of 6×10^−4 in MH broth and a 180 μl volume was mixed with 20 μl of peptide arrayed as 2-fold dilution series in a 96-well plate. For the positive control, 20 μl of sterile water was used. Plates were incubated as standing cultures overnight at 37° C. The lowest peptide concentration that resulted no observed microbial growth after an overnight treatment was defined as the MIC.
(In general: In broth dilution the organism is exposed to a series of concentrations in liquid medium.)

For data set [5], the system named is S. pseudintermedius canine isolate MRSP24. The experiment in a line: MIC, broth dilution. The format is cell-based, Staphylococcus pseudintermedius. As to the method:
as §1, §2

The test system of data set [6] is S. pseudintermedius human isolate SPC020 (MSSR). The experiment in a line: MIC, broth dilution. The format is cell-based, Staphylococcus pseudintermedius. On the procedure:
as §1, §2

In data set [7] the test system is S. pseudintermedius human isolate SPC002 (MSSP). The experiment in a line: MIC, broth dilution. The format is cell-based, Staphylococcus pseudintermedius. As to the method: as §1, §2
Data set [8] has as its system S. pseudintermedius canine isolate MRSP16. Put plainly: MIC, broth dilution. The format is cell-based, Staphylococcus pseudintermedius. As to the method:
as §1, §2

The subject of data set [9] is S. pseudintermedius canine isolate MSSP42. The experiment in a line: MIC, broth dilution. Type of data set: cell-based, Staphylococcus pseudintermedius. As to the method:
as §1, §2

Ends that are not written are not given here.

On to “TVGGLVKWILKTVKKFA-NH2 [STIP3-29, TVGGLVKWILKTVKKFA-NH2]”, for which the “DiSC3(5) fluorescence change” value in the data set with MRSA ATCC 33592 [1] is “dose-dependent increase in fluorescence”. The “control of MRSA population on 3D epidermal tissue” value in the data set on MRSA ATCC 33592 [2] (25 μg/ml after colonization, 16 h) is reported as “prevented the expansion of the MRSA population”. In addition, the average bacterial density with MRSA ATCC 33592 [2] (tissues treated with 25 μg/mL (n=6), infected at 7×10^3 CFU/mL, untreated 9×10^7 CFU/mL) is 6×10^3 CFU/mL. The “α helicity (%)” value in data set [3] is reported as 61%. For the same substance, the “MIC” value in [4], in data set [5], in data set [6], in data set [7], in data set [8] and in data set [9] was 3.13 µg/mL in each case.
